Here are results for three compounds from ChEMBL document CHEMBL1759974, “Discovery of triazine-benzimidazoles as selective inhibitors of mTOR” (Bioorg Med Chem Lett, 2011).

Data set [1] can be described thus: Half life in Sprague-Dawley rat at 1 mg/kg, iv. It is filed as ADME, organism-based. Also on record: dose 1 mg/kg, route intravenous. The conditions noted are these: in vivo.
Data set [2] deals with T1, Serine/threonine-protein kinase mTOR (Homo sapiens, UniProt P42345).
For data set [3], the system named is Rattus norvegicus. In words: In vivo clearance in bile-duct cannulated rat assessed as multiple glucuronidation metabolites in bile by LC/MS analysis. It is filed as ADME, organism-based.
Data set [4] can be described thus: Oral bioavailability in Sprague-Dawley rat at 2 mg/kg. It is filed as ADME, organism-based. The settings on record: in vivo.
The target in data set [5] is Phosphatidylinositol 4,5-bisphosphate 3-kinase catalytic subunit beta isoform (Homo sapiens, UniProt P42338).
The target in data set [6] is T1, Serine/threonine-protein kinase mTOR. The source holds these as a separate data set.
Description: Inhibition of mTOR in human U-87 cells assessed as inhibition of phosphorylation of AKT at S473
Data set [7] deals with Rattus norvegicus. In words: AUC in Sprague-Dawley rat at 1 mg/kg, iv. It is filed as ADME, organism-based, Plasma. Also on record: dose 1 mg/kg, route intravenous. The conditions noted are these: in vivo.
The target of data set [8] is T2, Phosphatidylinositol 4,5-bisphosphate 3-kinase catalytic subunit delta isoform (Homo sapiens, UniProt O00329).
T2 sequence (O00329 whole entry): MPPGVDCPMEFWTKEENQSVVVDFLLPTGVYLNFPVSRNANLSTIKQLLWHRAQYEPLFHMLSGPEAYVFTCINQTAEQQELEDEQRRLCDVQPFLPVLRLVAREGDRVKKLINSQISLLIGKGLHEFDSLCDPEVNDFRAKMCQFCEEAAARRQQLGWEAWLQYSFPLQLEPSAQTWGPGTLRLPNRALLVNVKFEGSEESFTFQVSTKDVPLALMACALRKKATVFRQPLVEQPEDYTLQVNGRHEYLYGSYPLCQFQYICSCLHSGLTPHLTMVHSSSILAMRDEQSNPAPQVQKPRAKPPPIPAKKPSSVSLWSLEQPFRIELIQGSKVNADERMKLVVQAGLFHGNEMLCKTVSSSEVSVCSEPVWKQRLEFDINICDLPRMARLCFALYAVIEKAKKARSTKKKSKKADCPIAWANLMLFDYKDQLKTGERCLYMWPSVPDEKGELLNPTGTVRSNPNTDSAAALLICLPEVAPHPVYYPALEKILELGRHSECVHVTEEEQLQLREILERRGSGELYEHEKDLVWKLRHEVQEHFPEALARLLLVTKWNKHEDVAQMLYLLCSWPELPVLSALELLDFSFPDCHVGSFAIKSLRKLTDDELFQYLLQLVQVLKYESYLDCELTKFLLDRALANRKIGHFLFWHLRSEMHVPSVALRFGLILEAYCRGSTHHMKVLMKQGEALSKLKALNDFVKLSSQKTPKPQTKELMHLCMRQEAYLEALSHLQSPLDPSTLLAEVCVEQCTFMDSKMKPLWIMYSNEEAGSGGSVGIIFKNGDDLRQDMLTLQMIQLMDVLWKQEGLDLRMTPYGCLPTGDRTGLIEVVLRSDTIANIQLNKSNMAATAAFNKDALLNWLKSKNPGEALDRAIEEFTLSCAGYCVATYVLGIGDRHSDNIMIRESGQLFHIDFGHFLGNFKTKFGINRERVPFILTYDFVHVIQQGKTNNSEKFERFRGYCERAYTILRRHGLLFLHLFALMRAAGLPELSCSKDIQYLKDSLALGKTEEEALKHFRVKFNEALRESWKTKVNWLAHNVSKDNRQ

Data set [9] has as its target T1, Serine/threonine-protein kinase mTOR. This is another data set of the same source.
A short description of data set [10]: Intrinsic clearance in human liver microsomes. It is filed as ADME, Microsome.
Data set [11] is described as follows: Volume of distribution at steady state in Sprague-Dawley rat at 1 mg/kg, iv and 2 mg/kg, po. It is filed as ADME, organism-based. The conditions noted are these: in vivo, read-out: Vdss.
Data set [12] is described as follows: Plasma protein binding in Sprague-Dawley rat at 1 mg/kg, iv and 2 mg/kg, po. It is filed as ADME, organism-based. The conditions noted are these: read-out: PPB (converted).
Data set [13] in a line: Clearance in Sprague-Dawley rat at 1 mg/kg, iv and 2 mg/kg, po. It is filed as ADME, organism-based. The settings on record: in vivo.
A short description of data set [14]: Intrinsic clearance in rat liver microsomes. It is filed as ADME, Microsome. (In general: Liver microsomes are a subcellular fraction often used to study metabolism.)
Data set [15] is described as follows: Solubility of compound in 0.01 N HCL. It is filed as physicochemical. The conditions noted are these: buffer.
Data set [16] concerns the target Phosphatidylinositol 4,5-bisphosphate 3-kinase catalytic subunit alpha isoform (Homo sapiens, UniProt P42336).
In the next data set the test system is Liver. Kind of data set: Intrinsic clearance in rat liver hepatocytes. It is filed as ADME, cell-based, Hepatocyte.
The nature of data set [17]: Volume of distribution at steady state in Sprague-Dawley rat at 0.5 mg/kg, iv. It is filed as ADME, organism-based. Set-up: dose 0.5 mg/kg, route intravenous. The conditions noted are these: in vivo, read-out: Vdss.
The nature of data set [18]: Clearance in Sprague-Dawley rat at 0.5 mg/kg, iv. It is filed as ADME, organism-based. Set-up: dose 0.5 mg/kg, route intravenous. The settings on record: in vivo.
Data set [19] has as its system Rattus norvegicus. Kind of data set: AUC in Sprague-Dawley rat at 0.5 mg/kg, iv. The settings on record: in vivo. It is filed as ADME, organism-based, Plasma. Set-up: dose 0.5 mg/kg, route intravenous.
A short description of data set [20]: Half life in Sprague-Dawley rat at 0.5 mg/kg, iv. It is filed as ADME, organism-based. Set-up: dose 0.5 mg/kg, route intravenous. The settings on record: in vivo.
For data set [21], the target named is Phosphatidylinositol 4,5-bisphosphate 3-kinase catalytic subunit gamma isoform (Homo sapiens, UniProt P48736).
Data set [22] in a line: Half life in Sprague-Dawley rat at 5 mg/kg, po. It is filed as ADME, organism-based. Also on record: dose 5 mg/kg, route oral. The conditions noted are these: in vivo.
For data set [23], the system named is Rattus norvegicus. In words: AUC in Sprague-Dawley rat at 5 mg/kg, po. The settings on record: in vivo. Also on record: dose 5 mg/kg, route oral. It is filed as ADME, organism-based, Plasma.

Values after ≈ are worked out from the molar mass of the structure shown.

Chain of Phosphatidylinositol 4,5-bisphosphate 3-kinase catalytic subunit beta isoform (P42338 whole entry, canonical isoform): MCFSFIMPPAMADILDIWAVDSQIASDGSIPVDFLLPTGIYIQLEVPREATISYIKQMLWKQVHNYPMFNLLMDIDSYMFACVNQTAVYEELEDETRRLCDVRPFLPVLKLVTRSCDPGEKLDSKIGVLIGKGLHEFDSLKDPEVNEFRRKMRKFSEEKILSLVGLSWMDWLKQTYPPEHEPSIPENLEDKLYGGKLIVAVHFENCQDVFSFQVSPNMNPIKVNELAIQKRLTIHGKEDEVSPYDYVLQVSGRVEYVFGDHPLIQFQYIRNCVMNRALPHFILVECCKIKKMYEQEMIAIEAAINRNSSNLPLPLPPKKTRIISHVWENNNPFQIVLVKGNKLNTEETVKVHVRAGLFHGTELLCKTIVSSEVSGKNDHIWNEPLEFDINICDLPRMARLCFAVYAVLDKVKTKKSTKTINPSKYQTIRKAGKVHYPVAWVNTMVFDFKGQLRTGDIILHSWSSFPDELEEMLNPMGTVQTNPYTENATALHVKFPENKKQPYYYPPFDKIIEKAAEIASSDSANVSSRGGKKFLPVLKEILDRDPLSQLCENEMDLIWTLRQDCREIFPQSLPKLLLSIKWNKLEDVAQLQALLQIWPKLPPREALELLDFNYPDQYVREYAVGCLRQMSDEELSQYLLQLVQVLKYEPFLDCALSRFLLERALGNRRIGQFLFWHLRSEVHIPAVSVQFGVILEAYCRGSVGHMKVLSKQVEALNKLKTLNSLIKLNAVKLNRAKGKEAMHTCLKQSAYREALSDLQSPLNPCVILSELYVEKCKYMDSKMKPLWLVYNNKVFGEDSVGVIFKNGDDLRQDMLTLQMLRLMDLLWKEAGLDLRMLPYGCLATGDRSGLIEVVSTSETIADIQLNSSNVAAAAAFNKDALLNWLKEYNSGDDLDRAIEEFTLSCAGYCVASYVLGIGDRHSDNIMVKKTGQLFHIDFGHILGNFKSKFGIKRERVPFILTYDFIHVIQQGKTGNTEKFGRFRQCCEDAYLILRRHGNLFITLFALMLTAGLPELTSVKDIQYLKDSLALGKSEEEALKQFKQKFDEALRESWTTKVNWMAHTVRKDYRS
Chain of Phosphatidylinositol 4,5-bisphosphate 3-kinase catalytic subunit alpha isoform (P42336 whole entry, canonical isoform): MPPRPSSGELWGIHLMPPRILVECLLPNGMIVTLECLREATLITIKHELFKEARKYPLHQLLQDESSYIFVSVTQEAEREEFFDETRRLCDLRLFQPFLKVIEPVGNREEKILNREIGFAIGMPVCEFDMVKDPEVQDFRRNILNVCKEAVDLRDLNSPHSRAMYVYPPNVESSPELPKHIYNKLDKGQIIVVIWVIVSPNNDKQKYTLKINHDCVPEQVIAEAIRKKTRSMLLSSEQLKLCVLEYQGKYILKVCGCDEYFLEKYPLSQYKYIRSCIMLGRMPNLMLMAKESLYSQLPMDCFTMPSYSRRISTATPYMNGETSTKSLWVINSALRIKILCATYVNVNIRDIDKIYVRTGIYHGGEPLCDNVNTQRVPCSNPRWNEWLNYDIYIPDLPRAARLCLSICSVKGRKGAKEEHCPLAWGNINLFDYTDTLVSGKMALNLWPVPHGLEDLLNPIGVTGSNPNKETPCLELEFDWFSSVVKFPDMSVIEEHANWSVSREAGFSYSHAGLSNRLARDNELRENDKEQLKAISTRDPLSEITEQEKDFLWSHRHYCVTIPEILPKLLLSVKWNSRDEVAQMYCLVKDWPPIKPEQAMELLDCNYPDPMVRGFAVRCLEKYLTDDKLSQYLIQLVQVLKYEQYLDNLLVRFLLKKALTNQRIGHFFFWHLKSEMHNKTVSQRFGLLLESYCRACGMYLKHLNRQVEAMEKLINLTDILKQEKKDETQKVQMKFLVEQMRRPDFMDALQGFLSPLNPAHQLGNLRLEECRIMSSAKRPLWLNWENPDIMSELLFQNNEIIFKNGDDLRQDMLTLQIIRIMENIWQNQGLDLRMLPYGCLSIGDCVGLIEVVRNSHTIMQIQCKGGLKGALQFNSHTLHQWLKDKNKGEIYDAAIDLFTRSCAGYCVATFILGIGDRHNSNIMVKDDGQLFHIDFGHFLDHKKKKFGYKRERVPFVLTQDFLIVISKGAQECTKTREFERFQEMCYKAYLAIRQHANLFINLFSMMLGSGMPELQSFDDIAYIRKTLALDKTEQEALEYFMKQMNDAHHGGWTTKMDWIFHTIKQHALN
Chain of Phosphatidylinositol 4,5-bisphosphate 3-kinase catalytic subunit gamma isoform (P48736 whole entry, canonical isoform): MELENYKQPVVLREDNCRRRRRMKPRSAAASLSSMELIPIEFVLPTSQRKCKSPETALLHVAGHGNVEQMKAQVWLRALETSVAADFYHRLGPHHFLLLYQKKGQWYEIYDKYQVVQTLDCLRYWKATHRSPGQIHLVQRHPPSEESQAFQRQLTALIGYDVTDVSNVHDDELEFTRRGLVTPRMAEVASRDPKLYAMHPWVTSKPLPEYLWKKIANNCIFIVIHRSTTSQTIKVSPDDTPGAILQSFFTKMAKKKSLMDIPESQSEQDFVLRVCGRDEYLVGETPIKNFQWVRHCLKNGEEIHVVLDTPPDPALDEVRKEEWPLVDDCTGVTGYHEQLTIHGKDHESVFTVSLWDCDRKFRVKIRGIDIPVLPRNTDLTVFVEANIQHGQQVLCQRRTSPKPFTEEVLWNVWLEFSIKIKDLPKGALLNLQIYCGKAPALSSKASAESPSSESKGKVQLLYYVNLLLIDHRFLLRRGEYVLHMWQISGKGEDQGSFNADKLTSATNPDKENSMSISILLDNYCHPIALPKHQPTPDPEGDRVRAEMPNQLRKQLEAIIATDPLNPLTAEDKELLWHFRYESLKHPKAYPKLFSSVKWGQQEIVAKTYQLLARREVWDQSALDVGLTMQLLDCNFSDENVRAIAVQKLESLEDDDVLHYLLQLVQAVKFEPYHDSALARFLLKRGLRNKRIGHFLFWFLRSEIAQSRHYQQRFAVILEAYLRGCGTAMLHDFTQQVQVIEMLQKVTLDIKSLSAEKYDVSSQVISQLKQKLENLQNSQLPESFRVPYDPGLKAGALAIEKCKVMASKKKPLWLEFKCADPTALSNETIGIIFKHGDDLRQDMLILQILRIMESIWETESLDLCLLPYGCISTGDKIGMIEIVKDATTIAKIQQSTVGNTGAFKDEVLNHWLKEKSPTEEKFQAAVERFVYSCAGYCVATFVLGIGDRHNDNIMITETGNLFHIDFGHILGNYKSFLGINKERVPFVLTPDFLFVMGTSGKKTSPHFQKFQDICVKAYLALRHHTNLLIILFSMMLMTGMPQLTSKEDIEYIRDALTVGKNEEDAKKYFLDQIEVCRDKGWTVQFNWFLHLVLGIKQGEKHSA

Consider `Cc1nc(N)nc(-n2c(Nc3ccn[nH]3)nc3ccccc32)n1`, for which the half-life (usually the time needed for the level to fall by half in the phase considered) in [1] was 43.2 min. Besides, the half-inhibitory concentration (IC50) – broadly, the concentration that gives 50% inhibition – was determined as 0.39 µM in data set [2]; 0.87 µM in [5]; 0.055 µM in data set [6]; 0.51 µM in data set [8]; 0.027 µM in data set [9]; 0.8 µM in data set [16]. Besides, the result in the data set on Rattus norvegicus [3] was Active. Besides, in [4], the bioavailability – broadly, the share of a dose that reaches the circulation, judged against a reference dose that is usually intravenous – stood at 6.3%. Besides, the AUC with Rattus norvegicus [7] came out at 1680 nM. For the same compound, the microsomal CLint (in general, the capacity of the preparation to metabolise the compound, expressed as a volume cleared per time) in data set [10] came out at 79 µL/min/mg; in data set [14], 52 µL/min/mg. The Vd in data set [11] was 1.1 L/kg. The fraction unbound in data set [12] is 0.028. The compound further had a clearance in data set [13] of 1.9 L/h/kg. Further, the solubility (as a rule, the concentration that dissolves in the medium under given conditions) in data set [15] came to 0.037 mg/mL (≈ 120 µM). In addition, the CL in the data set with Liver turned out to be 28 µL/min/mg.

As for `Cc1nc(NCC#N)nc(-n2c(Nc3ccn[nH]3)nc3ccccc32)n1`, the Vd in [17] came out at 1.5 L/kg. The half-maximal inhibitory concentration (IC50) in [2] was determined as 0.6 µM; in [5], 8.5 µM; in data set [6] it was 0.073 µM; in data set [8], 4 µM; in data set [9], 0.031 µM; in [16], 6.2 µM. For the same compound, the IC50 in [21] stood at 3.6 µM. This compound also showed a bioavailability in data set [4] of 0%. In data set [18], the clearance was 2.5 L/h/kg. Also, the AUC in the data set on Rattus norvegicus [19] was 559 nM. In [20], this compound gave a half-life of 27 min. The fraction unbound in data set [12] was 0.016.

Turning to `Cc1nc(NCCC#N)nc(-n2c(Nc3cc[nH]n3)nc3ccccc32)n1`, the IC50 in [2] was 1.3 µM; in data set [5], 15.4 µM; in data set [6] it was 0.082 µM; in data set [8], 5.8 µM; in data set [9], 0.06 µM; in data set [16] it was 7.7 µM. The IC50 in data set [21] came out at 6.2 µM. The half-life in data set [22] is 42 min. This compound also registered an AUC in the data set with Rattus norvegicus [23] of 1020 nM.
